Columns and labels:
ALDH1A1 = biological target: T1, ALDH1A1 (Mus musculus, UniProt P24549); test: Validation of ALDH-mediated activation of AlDeLuc in heterotopic breast cancer model via DEAB inhibition; format: in vivo, BALB/c mice; set-up: from tissue; host or cells: 4T1-Luc tumours in BALB/c mice; conditions: AlDeLuc alone 0.55 mg/kg; 40 min after injection
T1 sequence (P24549 1-501): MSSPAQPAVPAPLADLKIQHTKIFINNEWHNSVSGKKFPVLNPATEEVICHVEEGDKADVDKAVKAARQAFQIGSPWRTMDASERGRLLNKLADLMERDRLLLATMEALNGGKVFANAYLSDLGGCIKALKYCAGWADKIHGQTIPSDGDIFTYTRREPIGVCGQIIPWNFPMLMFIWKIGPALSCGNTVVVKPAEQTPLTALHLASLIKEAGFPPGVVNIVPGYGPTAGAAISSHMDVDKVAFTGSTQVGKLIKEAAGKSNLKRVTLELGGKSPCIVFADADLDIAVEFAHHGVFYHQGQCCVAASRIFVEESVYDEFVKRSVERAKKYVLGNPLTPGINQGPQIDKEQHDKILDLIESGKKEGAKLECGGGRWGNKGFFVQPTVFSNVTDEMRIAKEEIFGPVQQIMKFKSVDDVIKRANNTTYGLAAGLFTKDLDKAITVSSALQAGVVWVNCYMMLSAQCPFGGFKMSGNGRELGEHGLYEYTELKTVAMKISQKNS
Description: Validation of ALDH-mediated Activation of AlDeLuc in a Heterotopic Breast Cancer Model via DEAB Inhibition. BALB/c mice bearing 4T1-Luc tumors were anesthetized using isoflurane (1-3% for maintenance; up to 5% for induction) in oxygen from a precision vaporizer. After testing to ensure animals are fully under anesthesia, each mouse was administered AlDeLuc via retro-orbital injection (0.55 mg/kg, 1:19 v/v DMSO:PBS). Images were captured using the IVIS imaging system 40 minutes after injection. Bioluminescence light was captured in open mode (no filters were applied). ROIs were drawn around each tumor and summed for each animal. The signal intensity was quantified using the Living Image Analysis Software. After two days, the same animals were anesthetized and co-administered a solution of AlDeLuc and DEAB (0.55 mg/kg and 93 mg/kg respectively, 1:19 v/v DMSO:PBS). After the allotted 40 minutes, the images were captured using the IVIS imaging system. Bioluminescence was collected in open mode (no filters were applied). ROIS were drawn around each tumor and summed for each animal. The signal intensity was quantified using the Living Image Analysis Software.

[1] = test system: A549 human lung carcinoma cells; test: AlDeLuc activation in A549 cells, lysate bioluminescence; format: cell-based
Description: Validation of ALDH-Mediated Activation of AlDeLuc in Human Lung Cancer Cells. A549 cells were cultured in T75 culture flasks. After two days, cells had become ˜90% confluent. An aliquot of HAMS FK12 media (1 mL) was removed from each flask and replaced with either disulfiram (DSF) (100 μM, 0.5% DMSO) or vehicle (0.5% DMSO). After incubation for one hour, the solutions were aspirated, the cells were washed with PBS, and resuspended in fresh HAMS FK12 media (9 mL). Each flask was then incubated with the AlDeLuc such that the final concentration of the probe is 100 µM and 1% DMSO. After 60 minutes this solution was aspirated, washed with fresh PBS, and detached from the culture flasks. The cells were then transferred to a 15 mL centrifuge tube and pelleted at 1000 rpm for 5 minutes at room temp. The cells were resuspended in PBS along with 10% protease inhibitor solution (1 protease inhibitor mini tablet per 10 mL of PBS, Pierce, Thermo Fisher Scientific) and sonicated on ice for 2.5 minutes (pulse 01, 01, 40%). […] ROIs were drawn around each well and the signal intensity was quantified using the Living Image Analysis software.
Determining Sensitivity of AlDeLuc by Cell Concentration Changes. […] ROIs were drawn around each well and the signal intensity was quantified using the Living Image Analysis software.

[2] = test system: mesenchymal stem cells (MSCs); test: AlDeLuc in mesenchymal stem cells, lysed and treated with luciferase; format: cell-based; conditions: 20 μM, one hour, ~2.5×10^5 MSCs, lysed
Description: Testing commenced by incubating MSCs with AlDeLuc (20 μM). After one hour, the cells were lysed, treated with luciferase, and imaged. […] Moreover, we wanted to allow for any oxidized N,N-diethyl luciferin substrate to accumulate for the highest possible signal.

Question: With `CCN(CC)c1ccc2nc(C3=N[C@@H](C(OC)OC)CS3)sc2c1` [AlDeLuc, (S)-2-(4-(dimethoxymethyl)-4,5-dihydrothiazol-2-yl)-N,N-diethylbenzo[d]thiazol-6-amine] as the compound, how does the total luminescent counts (ALDH1A1) read?
Answer: 2.18±0.60×10^4

Question: And the bioluminescence intensity increase ([1]; 3.6×10^6 A549 cells, 100 μM, 60 min)?
Answer: 56 fold

Question: What about the “light emission relative to vehicle controls” value ([1]; ~1.25×10^5 A549 cells, 20 μM, one hour) of the same compound?
Answer: 22.1 fold

Question: And the “bioluminescence of treated cells” value [2]?
Answer: indistinguishable from blank controls
